Assay results from BindingDB's records for doi:10.1016/j.bmcl.2005.04.054 (Schering-Plough Research Institute, 2005).

Assay: Inhibitory concentration against BaF3 cell line expressed recombinant human CCR3 using the chemotaxis assay

IC50: 136 nM
SMILES: O=C(NCC1CCCN(C2CCN(Cc3ccc(Cl)c(Cl)c3)CC2)C1)c1ccc2ncccc2c1 (stereo unspecified) [Quinoline-6-carboxylic acid [1'-(3,4-dichloro-benzyl)-[1,4']bipiperidinyl-3-ylmethyl]-amide]
